Paper PMC8245553, “Identification of natural product modulators of Merkel cell carcinoma cell growth and survival” (Scientific Reports, 2021)

Test system: MKL-1 (VP-MCC) cells
Experiment: Differential growth inhibition/cytotoxicity assay (CellTiterGlo/XTT), MKL-1
Details: Homo sapiens, MKL-1, 72 h, read-out: IC50 (ave ± sd)

`CC1(C)CCC(c2ccc(Cl)cc2)=C(CN2CCN(c3ccc(C(=O)NS(=O)(=O)c4ccc(N[C@H](CCN5CCOCC5)CSc5ccccc5)c(S(=O)(=O)C(F)(F)F)c4)cc3)CC2)C1` [Navitoclax] gave an IC50 of 200 ± 29 nM.
